{"source": "patent US9301910B2", "about": "“Fragrant formulations, methods of manufacture thereof and articles comprising the same” (GFBiochemicals Limited, priority 2010, dated 2016)", "assay_type_in_all_cases": "physicochemical", "key": {"[1]": {"experiment": "Miscibility of alkyl ketal esters with water", "settings": "for miscible in water to the extent of: parts of ester, balance to 100 parts is water (1 per 99, 2.5 in 97.5, 5 per 95); for miscibility with water: miscibility assessed at 25° C unless stated otherwise", "experimental": "(§1) Unless stated otherwise, miscibility is assessed at 25° C."}, "[2]": {"experiment": "Dissolution of vanillin in alkyl ketal esters", "experimental": "[…] […] Dissolution is much quicker at 80° C.\nVanillin was dissolved at 25% solids by weight in Et-LPK with slight heating (80° C.)."}, "[3]": {"experiment": "Compatibility between waxes and alkyl ketal esters (melt, cool to room temperature)", "experimental": "Compatibility between various waxes and the alkyl ketal esters was first determined as detailed below. Table 10 below details the fragrant formulations for 10 different candles (Examples 116-125) that contain the fragrant composition.\nBeeswax and Et-LGK were weighed into a vessel in a 50/50 weight ratio and heated to 80° C. to form a uniform molten mixture.\nGulf Wax brand of household paraffin wax for canning and candlemaking (distributed by Royal Oak Enterprises) was used in these experiments."}, "[4]": {"experiment": "Miscibility of alkyl ketal esters with organic compounds", "settings": "parts of the organic compound in 80 parts of the alkyl ketal ester; organic compounds as listed in the block", "experimental": "as §1"}, "[5]": {"experiment": "Compatibility between waxes and alkyl ketal esters (melt, cool to room temperature)", "settings": "25/75 weight ratio of Et-LGK to beeswax, 80° C, cooled"}, "[6]": {"settings": "NatureWax C-3 / ester 90/10 weight ratio, 80° C, cooled"}, "[7]": {"settings": "beeswax / ester 50/50 weight ratio, melted at 80° C, cooled to room temperature"}, "[8]": {"settings": "candelilla wax / ester 50/50 weight ratio, 120° C, cooled"}, "[9]": {"settings": "carnauba wax / ester 50/50 weight ratio, 120° C, cooled"}, "[10]": {"settings": "paraffin wax / ester 75/25 weight ratio, 80° C, cooled to room temperature"}, "[11]": {"settings": "vanillin at 10% solids by weight in the ester, room temperature"}, "[12]": {"settings": "NatureWax C-1 / ester 90/10 weight ratio, 80° C, cooled"}, "[13]": {"settings": "NatureWax P-1 / ester 75/25 weight ratio, 80° C, cooled"}, "[14]": {"settings": "paraffin wax / ester 50/50 weight ratio, 80° C, cooled to room temperature"}, "[15]": {"settings": "stearic acid / ester 50/50 weight ratio, 80° C, cooled to room temperature"}}}
{"smiles": "CCCCOC(=O)CCC1(C)OCC(CO)O1", "note": "(stereo not shown) [Bu-LGK, glycerol ketal of butyl levulinate]", "values": [{"measurement": "miscible in water to the extent of", "setting": "[1]", "value": 1, "unit": "parts"}, {"measurement": "dissolution of vanillin", "setting": "[2]; vanillin at 25% solids by weight in the ester, room temperature", "value": "initially appeared to be insoluble but over the course of five days, the vanillin dissolved, resulting in a clear uniform mixture"}, {"measurement": "layers upon cooling", "setting": "[3]; NatureWax C-1 / ester 50/50 weight ratio, 80° C, cooled", "value": "single homogenous wax layer"}, {"measurement": "layers upon cooling", "setting": "[3]; [6]", "value": "single homogenous wax layer"}, {"measurement": "layers upon cooling", "setting": "[3]; NatureWax P-1 / ester 50/50 weight ratio, 80° C, cooled", "value": "single homogenous wax layer"}, {"measurement": "layers upon cooling", "setting": "[3]; [7]", "value": "single homogenous wax layer"}, {"measurement": "layers upon cooling", "setting": "[3]; [8]", "value": "single homogenous wax layer"}, {"measurement": "layers upon cooling", "setting": "[3]; [9]", "value": "single homogenous wax layer"}, {"measurement": "layers upon cooling", "setting": "[3]; [10]", "value": "Two layers formed"}, {"measurement": "dissolves or is miscible with organic compounds to the extent of", "setting": "[4]", "value": "at least 20 parts"}]}
{"smiles": "CCOC(=O)CC1(C)OCC(CO)O1", "note": "(stereo not shown) [Et-AcAcGK]", "values": [{"measurement": "miscibility with water", "setting": "[1]", "value": "miscible with water in all proportions"}]}
{"smiles": "CCOC(=O)CCC1(C)OCC(CO)O1", "note": "(stereo not shown) [Et-LGK, glycerol ketal of ethyl levulinate]", "values": [{"measurement": "miscibility with water", "setting": "[1]", "value": "miscible in water in all proportions"}, {"measurement": "dissolution of vanillin", "setting": "[2]; [11]", "value": "clear uniform mixture"}, {"measurement": "layers upon cooling", "setting": "[3]; 25/75 Et-LGK to stearic acid by weight, 80° C, cooled", "value": "single homogenous wax layer"}, {"measurement": "layers upon cooling", "setting": "[3]; [12]", "value": "single homogenous wax layer"}, {"measurement": "layers upon cooling", "setting": "[3]; [6]", "value": "single homogenous soft wax layer"}, {"measurement": "layers upon cooling", "setting": "[3]; [13]", "value": "single homogenous wax layer"}, {"measurement": "layers upon cooling", "setting": "[3]; [7]", "value": "Two layers formed"}, {"measurement": "layers upon cooling", "setting": "[3]; candelilla wax / ester 75/25 weight ratio, 120° C, cooled to room temperature", "value": "Two layers formed"}, {"measurement": "layers upon cooling", "setting": "[3]; candelilla wax / ester 90/10 weight ratio, 120° C, cooled", "value": "single homogenous wax layer"}, {"measurement": "layers upon cooling", "setting": "[3]; [9]", "value": "Two layers formed"}, {"measurement": "layers upon cooling", "setting": "[3]; carnauba wax / ester 75/25 weight ratio, 120° C, cooled", "value": "single homogenous wax layer"}, {"measurement": "layers upon cooling", "setting": "[3]; [14]", "value": "Two layers formed"}, {"measurement": "layers upon cooling", "setting": "[3]; paraffin wax / ester 90/10 weight ratio, 80° C, cooled to room temperature", "value": "single homogenous wax layer"}, {"measurement": "layers upon cooling", "setting": "[3]; [15]", "value": "Two layers formed"}, {"measurement": "dissolves or is miscible with organic compounds to the extent of", "setting": "[4]", "value": "at least 20 parts"}, {"measurement": "layers upon cooling", "setting": "[5]", "value": "single homogenous wax layer"}]}
{"smiles": "CCOC(=O)CCC1(C)OCC(C)O1", "note": "(stereo not shown) [Et-LPK, propylene glycol ketal of ethyl levulinate]", "values": [{"measurement": "miscible in water to the extent of", "setting": "[1]", "value": 2.5, "unit": "parts"}, {"measurement": "dissolution of vanillin", "setting": "[2]; [11]", "value": "clear uniform mixture"}, {"measurement": "dissolution of vanillin", "setting": "[2]; vanillin at 25% solids by weight in the ester, slight heating (80° C)", "value": "clear uniform solutions hot and stayed as a clear uniform mixture at room temperature initially"}, {"measurement": "precipitation of vanillin on standing", "setting": "[2]; vanillin at 25% solids by weight, dissolved at 80° C, then room temperature", "value": "Within an hour, signs of precipitation at room temperature appeared"}, {"measurement": "layers upon cooling", "setting": "[3]; [12]", "value": "single homogenous wax layer"}, {"measurement": "layers upon cooling", "setting": "[3]; [6]", "value": "single homogenous wax layer"}, {"measurement": "layers upon cooling", "setting": "[3]; [13]", "value": "single homogenous wax layer"}, {"measurement": "layers upon cooling", "setting": "[3]; [7]", "value": "single homogenous wax layer"}, {"measurement": "layers upon cooling", "setting": "[3]; [8]", "value": "single homogenous wax layer"}, {"measurement": "layers upon cooling", "setting": "[3]; [9]", "value": "single homogenous wax layer"}, {"measurement": "layers upon cooling", "setting": "[3]; [14]", "value": "single homogenous wax layer"}, {"measurement": "layers upon cooling", "setting": "[3]; [10]", "value": "single homogenous wax layer"}, {"measurement": "layers upon cooling", "setting": "[3]; [15]", "value": "single homogenous wax layer"}, {"measurement": "dissolves or is miscible with organic compounds to the extent of", "setting": "[4]", "value": "at least 20 parts"}]}
{"smiles": "COC(=O)CC1(C)OCC(CO)O1", "note": "(stereo not shown) [Me-AcAcGK]", "values": [{"measurement": "miscibility with water", "setting": "[1]", "value": "miscible with water in all proportions"}]}
{"smiles": "CCOC(=O)CCC1(C)OCCO1", "note": "[ethyl-LEK]", "values": [{"measurement": "miscible in water to the extent of", "setting": "[1]", "value": 5, "unit": "parts"}]}
{"smiles": "COC(=O)CCC1(C)OCC(CO)O1", "note": "(stereo not shown) [methyl-LGK]", "values": [{"measurement": "miscibility with water", "setting": "[1]", "value": "miscible with water in all proportions"}]}
{"smiles": "CCCCOC(=O)CCC1(C)OCC(C)O1", "note": "(stereo not shown) [n-butyl-LPK]", "values": [{"measurement": "dissolves or is miscible with organic compounds to the extent of", "setting": "[4]", "value": "at least 20 parts"}]}
{"smiles": "CCCOC(=O)CCC1(C)OCC(CO)O1", "note": "(stereo not shown) [n-propyl-LGK]", "values": [{"measurement": "miscible in water to the extent of", "setting": "[1]", "value": 1, "unit": "parts"}]}
